Reference: patent US20260315446A1, “ANTIFUNGAL COMPOUNDS AND USES THEREOF” (priority 2023, published 2026)
pIC50: −log10 of the molar value. ≈ marks a conversion by molar mass, not a printed value. Entries after “also recorded” stand apart in the source; their conditions may differ. Read-outs that look alike come from different tables or passages of the source.

Assays:
[1] = test system: C. neoformans; assay: MIC assay (Example 4); assay type: cell-based, Cryptococcus neoformans; settings: Cryptococcus neoformans
Procedure: Both JH-FK-10 and JH-FK-11 maintained in vitro antifungal activity against C. neoformans with MICs of 0.8 and 1.6 μg/mL, respectively (Table 11).
In vitro antifungal activity of FK506, FK520, and analogs was assessed in RPMI 1640 (Sigma-Aldrich) for all strains tested. Minimum inhibitory concentrations (MIC) for each drug were measured using modified Clinical and Laboratory Standards Institute (CLSI) M38-A2 and M27-A3 standard in vitro antifungal susceptibility protocols. Broth microdilution assays for MIC assessment were performed as previously described. All antifungal assays with C. neoformans were performed at 37° C.

[2] = test system: immunosuppression; settings: listed as L-685,818; cited from earlier work
[3] = test system: fungi; settings: listed as L-685,818; cited from earlier work
[4] = test system: IL-2 expression in primary murine CD4+ T cells; assay: In vitro immunosuppressive activity, IL-2 expression (Example 4); assay type: cell-based, mouse
Procedure: Spleen and lymph nodes were collected from C57BL/6 mice and homogenized through a 40 μm filter. Pan-CD4^+ T cells were enriched using MagniSort Mouse CD4 T cell Kit (eBioscience) according to the manufacturer's protocol. Thereafter, CD4+CD25−CD44lo CD62Lhi naïve T cells were FACS-sorted. The naïve CD4+ T cells were grown in Iscove's Modified Dulbecco's Medium (IMDM) supplemented with glutamine, penicillin, streptomycin, gentamicin, 2-mercaptoethanol, and 10% FBS. Cells were then cultured on anti-hamster IgG coated plates in the presence of hamster anti-CD3 epsilon and anti-CD28 antibodies (BD Biosciences), neutralizing anti-IL-4 antibody (eBioscience), recombinant IL-12 (10 ng/mL), and recombinant IL-2 (50 U/mL) for 72 h. During this period, cells were grown in the presence of 2× serially diluted FK506, FK520, or analog suspended in DMSO for 72 h. During the last 4 h of culture, phorbol 12-myristate 13-acetate (PMA; Sigma), ionomycin (Sigma), and GolgiStop (BD Biosciences) were added to the culture to facilitate detection of intracellular cytokines via flow cytometry.
Live cells were stained with FITC-conjugated anti-CD4 antibody (eBioscience) and Fixable Viability Dye eFluor 506 (eBioscience) on ice, followed by fixation and permeabilization using the Foxp3 Transcription Factor Staining Kit (eBioscience). Intracellular staining was performed at room temperature using PE-conjugated anti-IL-2 antibody (eBioscience), followed by analysis with a BD LSRFortessa X-20 flow cytometer.

[5] = test system: C. neoformans strain H99; assay: Survival during cryptococcal infection (Example 3); assay type: in vivo, Cryptococcus neoformans in A/J mice; settings: 2 weeks twice daily i.p.; fluconazole 6 mg/kg, JH-FK-08 40 mg/kg; vehicle 16 days
Procedure: Finally, whether the antifungal efficacy translates into extended survival during infection was assessed. To test the impact of treatment on survival, murine survival was monitored in the cryptococcosis infection model. Following the same protocol of infection and dosing as in the fungal burden experiment, animal survival was monitored following infection and 2 weeks of intraperitoneal dosing. Fluconazole treatment extended median survival from 16 to 27 days.
(§1) C. neoformans inoculum was prepared by growing a 5-mL overnight YPD culture spinning in a tissue culture roller drum at 30° C. Cells were pelleted by centrifugation and washed in sterile PBS three times. Cell density was determined by hemocytometer, and cells were diluted to 2×10^6 cells/mL. Mice (10 to 20 g) were infected with 10^5 cells of C. neoformans H99. For inhalation infection, animals were anesthetized with isoflurane before 50 μL of inoculum was pipetted onto the upright nasal passages of each animal. Following inhalation of the inoculum, animals were monitored for post anesthesia recovery. Treatment of animals began 4 hours post infection and was continued for 14 days. Fungal burden was assessed 24 h after the final dose.
For survival curve analysis, animals were monitored until reaching defined humane end points, including social isolation, hunched posture, weight loss, lack of grooming, and labored breathing, and were then euthanized via CO2 inhalation. For fungal burden analysis, mice were euthanized following 2 weeks of treatment with a designated antifungal, vehicle, or combination. Brain, lung, and spleen were harvested from animals, weighed, and homogenized in sterile PBS using steel beads and a bead beater. Each organ homogenate was serially diluted 10-fold to 10-4 in PBS. One hundred microliters of each dilution was plated on YPD plates supplemented with YPD 50 μg/mL ampicillin and 30 μg/mL chloramphenicol, incubated at 30° C. for 2 days, and assessed for colony-forming units. CFU per organ weight was calculated and plotted using GraphPad Prism 9.

[6] = test system: C. neoformans strain H99; assay: Murine cryptococcal infection, lung fungal burden (Example 3); assay type: in vivo, Cryptococcus neoformans in A/J mice; settings: JH-FK-08 40 mg/kg
Procedure: In vivo antifungal activity and therapeutic benefit were assayed by investigating the impact of the FK520 analog on organ fungal burden during cryptococcosis. Specifically, the in vivo efficacy of JH-FK-08 on fungal burden was assessed using A/J female mice. Immunodeficient A/J mice were selected in part due to their defect in complement component five and their susceptibility to cryptococcal infection. Treatment groups included vehicle of 10% Kolliphor: ethanol (1:1) in phosphate-buffered saline (PBS), […], or the fluconazole and JH-FK-08 combination, […] infection. […] Mice were intranasally infected with C. neoformans strain H99, and fungal burden in the lung, spleen, and brain was assessed after 14 days of treatment.
as §1
For survival curve analysis, animals were monitored until reaching defined humane end points, including social isolation, hunched posture, weight loss, lack of grooming, and labored breathing, and were then euthanized via CO2 inhalation. […] One hundred microliters of each dilution was plated on YPD plates supplemented with YPD 50 μg/mL ampicillin and 30 μg/mL chloramphenicol, incubated at 30° C. for 2 days, and assessed for colony-forming units. CFU per organ weight was calculated and plotted using GraphPad Prism 9.

[7] = test system: C. neoformans strain H99; assay: Murine cryptococcal infection, brain fungal burden (Example 3); assay type: in vivo, Cryptococcus neoformans in A/J mice; settings: 14 days; fluconazole 6 mg/kg, JH-FK-08 40 mg/kg, i.p. twice per day
Procedure: (§2) In vivo antifungal activity and therapeutic benefit were assayed by investigating the impact of the FK520 analog on organ fungal burden during cryptococcosis. Specifically, the in vivo efficacy of JH-FK-08 on fungal burden was assessed using A/J female mice. Immunodeficient A/J mice were selected in part due to their defect in complement component five and their susceptibility to cryptococcal infection. Treatment groups included vehicle of 10% Kolliphor: ethanol (1:1) in phosphate-buffered saline (PBS), 6 mg/kg fluconazole, 40 mg/kg JH-FK-08, or the fluconazole and JH-FK-08 combination, all given via intraperitoneal (i.p.) injection twice per day beginning at 4 hours post infection. […] Mice were intranasally infected with C. neoformans strain H99, and fungal burden in the lung, spleen, and brain was assessed after 14 days of treatment.
as §1, with “For inhalation infection, animals were anesthetized with isoflurane before 50 μL of inoculum was pipetted onto the upright nasal passages of each animal.” left out, “Treatment of animals began 4 hours post infection and was continued for 14 days.” left out, “dose. […]” for “dose.”

[8] = test system: C. neoformans H99; assay: Survival in intranasal cryptococcosis model (Example 1); assay type: in vivo, Cryptococcus neoformans in A/J mice; settings: 14 days treatment; JH-FK-05 60 mg/kg, fluconazole 12 mg/kg, i.p. daily
Procedure: To verify if this reduction seen in the fungal burdens of JH-FK-05 and combination-treated animals could translate into a meaningful therapeutic effect, the survival of animals infected via the intranasal route was assessed (FIG. 8A). As in the fungal burden model, these animals received daily treatment for only 14 days. Following the termination of treatment, animals were monitored for signs of decline, lethargy, and ultimately, moribundity. Untreated animals in this model typically survive for about 3 weeks, and similar results were observed here (vehicle treatment median survival, 22 days). Corroborating the results of the fungal burden study, a significant extension of survival for both JH-FK-05 (median survival, 26 days) and fluconazole (median survival, 25 days) was observed.
Female A/J mice (3 to 4 weeks old; Jackson Laboratory) were anesthetized utilizing an isoflurane chamber. While anesthetized, […] of 2×10^6 cells/mL suspension was dripped onto the nares of mice, allowing them to inhale the full inoculum. Treatment began 3 h following infection with i.p. dosing of vehicle, 60 mg/kg JH-FK-05, 12 mg/kg fluconazole, or combination. […] After 14 days, animals were either sacrificed for fungal burden analysis or monitored for health and survival until reaching a humane endpoint. […] Statistical significance was determined using log-rank (Mantel-Cox) tests.

[9] = test system: C. neoformans strain H99; assay: Murine cryptococcal infection, spleen fungal burden (Example 3); assay type: in vivo, Cryptococcus neoformans in A/J mice; settings: 14 days; fluconazole 6 mg/kg, JH-FK-08 40 mg/kg, i.p. twice per day
Procedure: as §2
as §1, with “For inhalation infection, animals were anesthetized with isoflurane before 50 μL of inoculum was pipetted onto the upright nasal passages of each animal.” left out, “Treatment of animals began 4 hours post infection and was continued for 14 days.” left out, “dose. […]” for “dose.”

[10] = test system: C. neoformans H99; assay: Intranasal model of pulmonary cryptococcosis, lung fungal burden (Example 1); assay type: in vivo, Cryptococcus neoformans in A/J mice; settings: day 14; fluconazole 12 mg/kg i.p. daily
Procedure: First, in the intranasal model, animals were anesthetized and infected with 10^5 cells of wild-type H99 C. neoformans via instillation in the animal's nares. These animals were monitored for 14 days and then sacrificed. This model tests the efficacy of JH-FK-05 to treat a pulmonary infection, which is the most common manifestation of early-stage cryptococcosis in patients. […] In both models, animals were treated once daily via i.p. injection beginning 3 h after infection with either vehicle, 60 mg/kg JH-FK-05, 12 mg/kg fluconazole, or a combination of the two monotherapies.
Wild-type H99 C. neoformans cells were grown overnight at 30° C. in a roller drum in yeast extract-peptone-dextrose (YPD) medium. […] H99 cells were counted with a hemacytometer and diluted to 2×10^6 cells/mL in PBS for the pulmonary model and 2×10^5 cells/mL in PBS for the disseminated model.
Female A/J mice (3 to 4 weeks old; Jackson Laboratory) were anesthetized utilizing an isoflurane chamber. […] After 14 days, animals were either sacrificed for fungal burden analysis or monitored for health and survival until reaching a humane endpoint.
Mice were euthanized by CO2 inhalation at the predetermined experimental endpoint. […] A 100-μL aliquot of each dilution was plated on antibiotic plates (YPD, 50 μg/mL ampicillin, and 30 g/mL chloramphenicol), incubated for 48 to 72 h at 30° C., and assessed for CFU. […]

SMILES | MIC ([1]; 37° C., Table 13, read-out: C. neoformans MIC) | MIC ([1]; read-out: C. neoformans MIC, 37° C., Table 11) | MIC ([1]; read-out: C. neoformans MIC, 37° C., Table 12) | immunosuppression [2] | antifungal activity [3] | immunosuppressive activity [4] | pIC50 ([4]; Mus musculus, CD4+ T, Table 12) | median survival [5] | reduction of lung fungal burden ([6]; 14 days, fluconazole 6 mg/kg, i.p. twice per day) | lung fungal burden reduction ([6]; once daily, fluconazole 12 mg/kg) | brain fungal burden [7] | median survival [8] | spleen fungal burden [9] | lung fungal burden [10]
CC[C@@H]1/C=C(\C)C(O)[C@H](C)C[C@H](OC)[C@H]2O[C@@](O)(C(=O)C(=O)N3CCCC[C@H]3C(=O)O[C@H](/C(C)=C/[C@@H]3CC[C@@H](O)[C@H](OC)C3)[C@H](C)[C@@H](O)CC1=O)[C@H](C)C[C@@H]2OC (single isomer, unassigned) [JH-FK-11] | 1.6 µg/mL (≈ 1.98 µM) | 3.2 µg/mL (≈ 3.96 µM) | 1.6 µg/mL (≈ 1.98 µM) | non-immunosuppressive; also recorded: reduced for immunosuppression in vitro | robust antifungal activity; also recorded: broad-spectrum antifungal activity | detectable immunosuppressive activities; also recorded: significantly reduced for immunosuppressive activity compared to its FK506 counterpart JH-FK-10 | 7.38 |  |  |  |  |  |  | 
OC(Cn1cncn1)(Cn1cncn1)c1ccc(F)cc1F [fluconazole, reference compound] |  |  |  |  |  |  |  | 27 days | ~ 6 fold | limited efficacy in reducing lung fungal burden | no detectable fungal burden | 25 days | no detectable fungal burden | did not reduce the fungal burden
